Reference: patent US8629157B2, “Pyrrolidine compounds which modulate the CB2 receptor” (Boehringer Ingelheim International GmbH, priority 2009, dated 2014)

Molecular target: human CB2R (Homo sapiens, UniProt P34972)
Experiment: CB2R mediated modulation of cAMP synthesis
Assay type: cell-based
Conditions: not given
Experimental: B. CB2R Mediated Modulation of cAMP Synthesis:
Compounds of the invention were evaluated for their CB2 agonist or inverse agonistic activity in accordance with the following experimental method.
CHO cells expressing human CB2R (Euroscreen) were plated at a density of 5000 cells per well in 384 well plates and incubated overnight at 37° C. After removing the media, the cells were treated with test compounds diluted in stimulation buffer containing 1 mM IBMX, 0.25% BSA and 10 uM Forskolin. The assay was incubated for 30 minutes at 37° C. Cells were lysed and the cAMP concentration was measured using DiscoverX-XS cAMP kit, following the manufacturer's protocol. In this setting, agonists will decrease forskolin induced production of cAMP while inverse agonists will further increase forskolin induced production of cAMP. EC50 of agonists were calculated as follows. The maximal amount of cAMP produced by forskolin compared to the level of cAMP inhibited by 1 uM CP55940 is defined as 100%. […] Data was analyzed using a four-parameter logistic model. (Model 205 of XLfit 4.0).

human CB2R, sequence (P34972 whole entry): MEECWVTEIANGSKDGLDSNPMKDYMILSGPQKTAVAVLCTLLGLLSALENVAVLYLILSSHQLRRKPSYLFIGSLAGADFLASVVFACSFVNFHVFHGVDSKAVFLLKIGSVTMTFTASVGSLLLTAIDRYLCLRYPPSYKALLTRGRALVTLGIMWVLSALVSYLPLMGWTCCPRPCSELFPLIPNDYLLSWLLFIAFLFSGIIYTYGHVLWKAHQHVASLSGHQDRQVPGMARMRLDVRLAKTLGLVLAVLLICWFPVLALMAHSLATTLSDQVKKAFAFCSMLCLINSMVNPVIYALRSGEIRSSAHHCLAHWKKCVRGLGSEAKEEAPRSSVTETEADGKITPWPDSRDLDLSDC

Row | Compound | EC50 [nM]
1 | CCc1sc(NC(=O)[C@@H]2C[C@@H](O)CN2CC2CCOCC2)nc1-c1ccccc1 [(2S,4R)-4-Hydroxy-1-(tetrahydro-pyran-4-ylmethyl)-pyrrolidine-2-carboxylic acid (5-ethyl-4-phenyl-thiazol-2-yl)-amide] | 7.93
2 | CC(C)(C)c1nnc(NC(=O)[C@@H]2C[C@@H](O)CN2CC2CCOCC2)s1 [(2S,4R)-4-Hydroxy-1-(tetrahydro-pyran-4-ylmethyl)-pyrrolidine-2-carboxylic acid (5-tert-butyl-1,3,4-thiadiazol-2-yl)-amide] | 69.8
3 | CC(C)(C)c1cc(NC(=O)[C@@H]2C[C@@H](O)CN2CC2CCOCC2)no1 [(2S,4R)-4-Hydroxy-1-(tetrahydro-pyran-4-ylmethyl)-pyrrolidine-2-carboxylic acid (5-tert-butyl-isoxazol-3-yl)-amide] | 3.89
4 | O=C(Nc1nc(-c2ccc(Cl)cc2)cs1)[C@@H]1C[C@@H](O)CN1CC1CCOCC1 [(2S,4R)-4-Hydroxy-1-(tetrahydro-pyran-4-ylmethyl)-pyrrolidine-2-carboxylic acid [4-(4-chloro-phenyl)-thiazol-2-yl]-amide] | 71.2
5 | CC(C)(C)c1cc(NC(=O)[C@@H]2C[C@H](O)CN2c2ncc(C(F)(F)F)cc2Cl)no1 [(2S,4S)-1-(3-Chloro-5-trifluoromethyl-pyridin-2-yl)-4-hydroxy-pyrrolidine-2-carboxylic acid (5-tert-butyl-isoxazol-3-yl)-amide] | 1.35
6 | O=C(Nc1nc(-c2ccccc2)ns1)[C@@H]1C[C@H](O)CN1c1ccc(C(F)(F)F)cn1 [(2S,4S)-4-Hydroxy-1-(5-trifluoromethyl-pyridin-2-yl)-pyrrolidine-2-carboxylic acid (3-phenyl-1,2,4-thiadiazol-5-yl)-amide] | 18.4
7 | CC(C)(C)c1cc(NC(=O)[C@@H]2C[C@H](O)CN2c2ccc(C(F)(F)F)cn2)no1 [(2S,4S)-4-Hydroxy-1-(5-trifluoromethyl-pyridin-2-yl)-pyrrolidine-2-carboxylic acid (5-tert-butyl-isoxazol-3-yl)-amide] | 27.9
8 | CC(C)(C)c1cc(NC(=O)[C@@H]2C[C@H](O)CN2C2CCOCC2)on1 [(2S,4S)-4-Hydroxy-1-(tetrahydro-pyran-4-yl)-pyrrolidine-2-carboxylic acid (3-tert-butyl-isoxazol-5-yl)-amide] | 59
9 | CC(C)(C)c1nc(NC(=O)[C@@H]2C[C@H](O)CN2CC2CCOCC2)sc1C#N [(2S,4S)-4-Hydroxy-1-(tetrahydro-pyran-4-ylmethyl)-pyrrolidine-2-carboxylic acid (4-tert-butyl-5-cyano-thiazol-2-yl)-amide] | 380
10 | CC(C)N1C[C@@H](O)C[C@H]1C(=O)Nc1cc(C(C)(C)C)no1 [(2S,4S)-4-Hydroxy-1-isopropyl-pyrrolidine-2-carboxylic acid (3-tert-butyl-isoxazol-5-yl)-amide] | 421
11 | O=C(Nc1ccc(C(F)(F)F)cn1)[C@H]1CCCN1c1ccc(C(F)(F)F)cc1 [(R)-1-(4-Trifluoromethyl-phenyl)-pyrrolidine-2-carboxylic acid (5-trifluoromethyl-pyridin-2-yl)-amide] | 70.7
12 | CC(C)(C)c1nnc(NC(=O)[C@@H]2CCCN2C(=O)N2CCS(=O)(=O)CC2)s1 [(S)-1-(1,1-Dioxo-1l^6-thiomorpholine-4-carbonyl)-pyrrolidine-2-carboxylic acid (5-tert-butyl-1,3,4-thiadiazol-2-yl)-amide] | 436
13 | CC(C)(C)c1cc(NC(=O)[C@@H]2CCC(=O)N2c2cccc(F)c2F)on1 [(S)-1-(2,3-Difluoro-phenyl)-5-oxo-pyrrolidine-2-carboxylic acid (3-tert-butyl-isoxazol-5-yl)-amide] | 261
14 | CCC(C)CN1CCC[C@H]1C(=O)Nc1cc(C(C)(C)C)no1 (stereo partly drawn) [(S)-1-(2-Methyl-butyl)-pyrrolidine-2-carboxylic acid (3-tert-butyl-isoxazol-5-yl)-amide] | 0.116
15 | CC(C)(C)c1cc(NC(=O)[C@@H]2CCC(=O)N2c2ccc(Cl)c(Cl)c2)on1 [(S)-1-(3,4-Dichloro-phenyl)-5-oxo-pyrrolidine-2-carboxylic acid (3-tert-butyl-isoxazol-5-yl)-amide] | 16.1
16 | CC(C)(C)c1cc(NC(=O)[C@@H]2CCC(=O)N2c2ccc(Cl)c(Cl)c2)no1 [(S)-1-(3,4-Dichloro-phenyl)-5-oxo-pyrrolidine-2-carboxylic acid (5-tert-butyl-isoxazol-3-yl)-amide] | 49.7
17 | CC(C)(C)c1cc(NC(=O)[C@@H]2CCCN2Cc2ccc(F)c(F)c2)on1 [(S)-1-(3,4-Difluoro-benzyl)-pyrrolidine-2-carboxylic acid (3-tert-butyl-isoxazol-5-yl)-amide] | 0.208

Row | Compound | EC50 [nM]
18 | CC(C)(C)c1cc(NC(=O)[C@@H]2CCC(=O)N2c2ccc(F)c(F)c2)on1 [(S)-1-(3,4-Difluoro-phenyl)-5-oxo-pyrrolidine-2-carboxylic acid (3-tert-butyl-isoxazol-5-yl)-amide] | 16
19 | CC(C)(C)c1cc(NC(=O)[C@@H]2CCC(=O)N2c2ccc(F)c(F)c2)no1 [(S)-1-(3,4-Difluoro-phenyl)-5-oxo-pyrrolidine-2-carboxylic acid (5-tert-butyl-isoxazol-3-yl)-amide] | 64.2
20 | CC(C)(C)c1cc(NC(=O)[C@@H]2CCCN2c2ncc(Cl)cc2Cl)on1 [(S)-1-(3,5-Dichloro-pyridin-2-yl)-pyrrolidine-2-carboxylic acid (3-tert-butyl-isoxazol-5-yl)-amide] | 0.135
21 | CC(C)(C)c1cc(NC(=O)[C@@H]2CCC(=O)N2c2ccc(F)c(Cl)c2)on1 [(S)-1-(3-Chloro-4-fluoro-phenyl)-5-oxo-pyrrolidine-2-carboxylic acid (3-tert-butyl-isoxazol-5-yl)-amide] | 26.7
22 | CC(C)(C)c1cc(NC(=O)[C@@H]2CCC(=O)N2c2ccc(F)c(Cl)c2)no1 [(S)-1-(3-Chloro-4-fluoro-phenyl)-5-oxo-pyrrolidine-2-carboxylic acid (5-tert-butyl-isoxazol-3-yl)-amide] | 59.3
23 | CC(C)(C)c1cc(NC(=O)[C@@H]2CC(=O)CN2c2ncc(C(F)(F)F)cc2Cl)no1 [(S)-1-(3-Chloro-5-trifluoromethyl-pyridin-2-yl)-4-oxo-pyrrolidine-2-carboxylic acid (5-tert-butyl-isoxazol-3-yl)-amide] | 40.2
24 | CC(C)(C)c1cc(NC(=O)[C@@H]2CCCN2c2ncc(C(F)(F)F)cc2Cl)on1 [(S)-1-(3-Chloro-5-trifluoromethyl-pyridin-2-yl)-pyrrolidine-2-carboxylic acid (3-tert-butyl-isoxazol-5-yl)-amide] | 0.055
25 | CC(C)(C)c1csc(NC(=O)[C@@H]2CCCN2c2ncc(C(F)(F)F)cc2Cl)n1 [(S)-1-(3-Chloro-5-trifluoromethyl-pyridin-2-yl)-pyrrolidine-2-carboxylic acid (4-tert-butyl-thiazol-2-yl)-amide] | 1.95
26 | CC(C)(C)c1cc(NC(=O)[C@@H]2CCCN2c2ncc(C(F)(F)F)cc2Cl)no1 [(S)-1-(3-Chloro-5-trifluoromethyl-pyridin-2-yl)-pyrrolidine-2-carboxylic acid (5-tert-butyl-isoxazol-3-yl)-amide] | 0.08
27 | CC(C)(C)c1cc(NC(=O)[C@@H]2CCC(=O)N2c2cccc(Cl)c2)on1 [(S)-1-(3-Chloro-phenyl)-5-oxo-pyrrolidine-2-carboxylic acid (3-tert-butyl-isoxazol-5-yl)-amide] | 203
28 | COc1ccc(N2C(=O)CC[C@H]2C(=O)Nc2cc(C(C)(C)C)no2)cc1F [(S)-1-(3-Fluoro-4-methoxy-phenyl)-5-oxo-pyrrolidine-2-carboxylic acid (3-tert-butyl-isoxazol-5-yl)-amide] | 314
29 | CC(C)(C)c1cc(NC(=O)[C@@H]2CCC(=O)N2c2ncc(C(F)(F)F)cc2F)on1 [(S)-1-(3-Fluoro-5-trifluoromethyl-pyridin-2-yl)-5-oxo-pyrrolidine-2-carboxylic acid (3-tert-butyl-isoxazol-5-yl)-amide] | 5
30 | CC(C)(C)c1cc(NC(=O)[C@@H]2CCC(=O)N2c2cccc(F)c2)on1 [(S)-1-(3-Fluoro-phenyl)-5-oxo-pyrrolidine-2-carboxylic acid (3-tert-butyl-isoxazol-5-yl)-amide] | 357
31 | CC(C)(C)c1cc(NC(=O)[C@@H]2CCCN2CCCO)on1 [(S)-1-(3-Hydroxy-propyl)-pyrrolidine-2-carboxylic acid (3-tert-butyl-isoxazol-5-yl)-amide] | 28.6
32 | CC(C)(C)c1nnc(NC(=O)[C@@H]2CCCN2CCCO)s1 [(S)-1-(3-Hydroxy-propyl)-pyrrolidine-2-carboxylic acid (5-tert-butyl-1,3,4-thiadiazol-2-yl)-amide] | 320
33 | CC(C)(C)c1cc(NC(=O)[C@@H]2CCC(=O)N2c2ncc(C(F)(F)F)cc2Cl)no1 [(S)-1-(3-chloro-5-trifluoromethyl-pyridin-2-yl)-5-oxo-pyrrolidine-2-carboxylic acid (5-tert-butyl-isoxazol-3-yl)-amide] | 6.5

Same assay, conditions: CHO cells expressing human CB2R; inhibition of forskolin-stimulated cAMP synthesis; mean; read-out: CB2 CAMP @ EC50 nM (mean)

Row | Compound | EC50 [nM]
34 | CC(C)(C)c1cc(NC(=O)[C@@H]2CCC(=O)N2c2cccc(Cl)c2)no1 [(S)-1-(3-Chloro-phenyl)-5-oxo-pyrrolidine-2-carboxylic acid (5-tert-butyl-isoxazol-3-yl)-amide] | 296
35 | O=C(Nc1nc(-c2ccccc2)ns1)[C@@H]1CCC(=O)N1c1ncc(C(F)(F)F)cc1Cl [(S)-1-(3-chloro-5-trifluoromethyl-pyridin-2-yl)-5-oxo-pyrrolidine-2-carboxylic acid (3-phenyl-1,2,4-thiadiazol-5-yl)-amide] | 0.549
